Experimental data: US20050065213A1 (priority 2001, published 2005)
pIC50: −log10 of the molar value. Where two headings read alike, the source gives them in different places.

Columns and labels:
[1] = Flow cytometry, percentage of cells in the phases of the cell cycle; type: cell-based; conditions: for % Cells G2-M: control 12.08; for % Cells S-phase: control 32.87; for % Cells G0-G1: control 55.05
Text: Tables 14 and 15 show the results of tubulin assembly assays and flow cytometry studies on selected compounds of the present invention.

tubulin [2] = assay: Colchicine competition assay; type: binding
Text: The compounds have been further tested for their performance in colchicine competition assays, and the results tabulated in Tables 9 to 13.

tubulin [3] = assay: Tubulin assembly inhibition assay; type: biochemical; conditions: for IC50: tubulin assembly; for pIC50: tubulin assembly assay, Table 14, read-out: IC(TA)50
K562 cell line = assay: Cytotoxicity (IC50) assay against the K562 cell line; type: cell-based; conditions: for activity (in words): cytotoxicity, qualitative statements; for pIC50: Homo sapiens, K562 cell line, read-out: IC50 values in the cytotoxicity tests
Experimental: Compounds based on the aurone structure were prepared as conformationally restricted analogues of the chalcones. They were prepared from the appropriate benzofuranone.

[4] = system: P388 murine leukaemia cell line; conditions: cell line not stated for this statement; cited from earlier work
[5] = system: H460 human non small cell lung cells; assay: H460 xenograft in nude mice; type: in vivo
H460 xenograft = H460 xenograft mice, X-Rays plus drug; type: in vivo; conditions: X-Ray plus drug treated group, FIG. 6
Text: Whilst X-Ray treatment was effective immediately after treatment, fresh tumour growth became evident by 36 days.

[6] = corrected values scaled by a factor of 5, read-out: IC50 μM (corrected)
[7] = original experimental value, read-out: IC50 μM (original)

Structure (SMILES)	Colchicine competition, Drug:Protein Ratio 1:1 (tubulin [2])	Colchicine competition, Drug:Protein Ratio 10:1 (tubulin [2])	IC50 (tubulin [3]; [6]) [µM]	IC50 (tubulin [3]; [7]) [µM]	other results
COc1ccc(/C=C/C(=O)c2cc(OC)c(OC)c(OC)c2)cc1N [MW65, (E)-3-(3″-Amino-4″-methoxyphenyl)-1-(3′,4′,5′-trimethoxyphenyl)-2-propen-1-one]					% Cells Debris [1]: 14.10%; % Cells G2-M [1]: 18.52%; % Cells S-phase [1]: 33.18%; % Cells G0-G1 [1]: 48.30%; melting point: 90 to 91 °C
COc1ccc(-c2cc(=O)c3cc(OC)c(OC)c(OC)c3o2)cc1O [DR36, 2-(3′-Hydroxy-4′-methoxyphenyl)-6,7,8-trimethoxy-4H-chromen-4-one]	100	43	> 100	25	melting point: 199 to 200 °C
COc1cc2c(c(OC)c1OC)OC(=Cc1ccc(O)c(O)c1)C2=O [DR31]			> 100	> 50	
COc1ccc(/C=C(\C)C(=O)c2cc(OC)c(OC)c(OC)c2)cc1OP(=O)([O-])[O-].[Na+].[Na+] [SD174b, Disodium 3′-phosphate salt of (E)-1-(3′-Hydroxy-4′-methoxyphenyl)-2-methyl-3-(3″,4″,5″-trimethoxyphenyl)prop-1-en-3-one]					activity (in words) (K562 cell line): potently active
COc1ccc(C=C2Oc3cc(OC)c(OC)c(OC)c3C2=O)cc1O [DR23]			> 100	> 50	
COc1cc(C(=O)/C(C)=C/c2cc(F)c(OC)c(F)c2)cc(OC)c1OC [DR6, (E)-3-(3″, 5″-Difluoro-4″-methoxyphenyl)-2-methyl-1-(3′, 4′,5′-trimethoxyphenyl)-2-propen-1-one]	33	25	12	2.4	
COc1ccc(/C=C/C(=O)c2cc(OC)c(OC)c(OC)c2)cc1OP(=O)([O-])[O-].[Na+].[Na+] [SD174a, Disodium 3′-phosphate salt of (E)-1-(3′-Hydroxy-4′-methoxyphenyl)-3-(3″,4″,5″-trimethoxyphenyl)prop-1-en-3-one]					activity (in words) (K562 cell line): potently active
CO/C(=C\c1ccc(OC)c(F)c1)C(=O)c1cc(OC)c(OC)c(OC)c1 [DR14, (Z)-3-(3″-Fluoro-4″-methoxyphenyl)-2-methoxy-1-(3′,4′,5′-trimethoxyphenyl)-2-propen-1-one]	22	8	2.4	0.47	melting point: 110 to 112 °C
COc1ccc(/C=C(\C)C(=O)c2cc(OC)c(OC)c(OC)c2)cc1[N+](=O)[O-] [MW68]					% Cells Debris [1]: 11.27%; % Cells G2-M [1]: 28.29%; % Cells S-phase [1]: 35.36%; % Cells G0-G1 [1]: 36.35%; pIC50 (tubulin [3]): < 5.00
COc1ccc(C2CCc3cc(OC)c(OC)c(OC)c32)cc1N (stereo not drawn) [MW82]					% Cells Debris [1]: 18.58%; % Cells G2-M [1]: 23.34%; % Cells S-phase [1]: 36.26%; % Cells G0-G1 [1]: 40.40%; pIC50 (tubulin [3]): < 5.00
COc1ccc(C2CC(=O)c3cc(OC)c(OC)c(OC)c32)cc1N (stereo not drawn) [MW74, 3-(3′-Amino-4′-methoxyphenyl)-4,5,6-trimethoxy-1-indanone]					% Cells Debris [1]: 12.72%; % Cells G2-M [1]: 29.10%; % Cells S-phase [1]: 33.76%; % Cells G0-G1 [1]: 37.14%; pIC50 (tubulin [3]): ~5.00
COc1ccc(C2CC(O)c3cc(OC)c(OC)c(OC)c32)cc1F (stereo not drawn) [DR60]			> 100	> 50	
COc1ccc(C=C2Oc3c(cc(OC)c(OC)c3OC)C2=O)cc1F [DR28]			> 100	> 50	pIC50 (K562 cell line): 6.96
COc1ccc(CC(C)C(=O)c2cc(OC)c(OC)c(OC)c2)cc1O (stereo not drawn) [MW71]					% Cells Debris [1]: 19.31%; % Cells G2-M [1]: 28.08%; % Cells S-phase [1]: 36.09%; % Cells G0-G1 [1]: 35.84%; pIC50 (tubulin [3]): 5.40
COc1ccc(/C=C/c2cc(OC)c(OC)c(OC)c2)cc1O [trans-combretastatin A-4]					cell growth inhibition (in words) [4]: μM range
COc1ccc(C=CC(=O)c2ccc(OC)c(OC)c2OC)cc1O [DR8, (E)-3-(3″-Hydroxy-4″-methoxyphenyl)-1-(2′,3′,4′-trimethoxyphenyl)-2-propen-1-one]			2.3	0.45	melting point: 85 to 86 °C
COc1ccc(/C=C(\C)C(=O)c2cc(OC)c(OC)c(OC)c2)cc1F [DR5, (E)-3-(3″-Fluoro-4″-methoxyphenyl)-2-methyl-1-(3′,4′,5′-trimethoxyphenyl)-2-propen-1-one]	14	6	3.5	0.7	necrosis in tumour ([5]; 24 hours after treatment with 0.75 MTD): necrosis in H460 cancer cells; adverse side effects on healthy surrounding tissue ([5]; H460 xenograft nude mice): no adverse side effects on healthy surrounding tissue; tumour volume / potency with concomitant X-Rays (H460 xenograft): some initial increase in tumour volume between days 27 and 32, though this was followed by subsequent decrease to a steady baseline at day 34; tumour volume / potency with concomitant X-Rays (H460 xenograft; listed as DRA 212): Further improvement in the potency; activity (in words) (K562 cell line): most active fluorinated analogue
COc1ccc(C2CC(=O)c3cc(OC)c(OC)c(OC)c32)cc1F (stereo not drawn) [DR59]	100	61	20	4	
CO/C(=C\c1cc(F)c(OC)c(F)c1)C(=O)c1cc(OC)c(OC)c(OC)c1 [DR15, (Z)-3-(3″,5″-Difluoro-4″-methoxyphenyl)-2-methoxy-1-(3′,4′,5′-trimethoxyphenyl)-2-propen-1-one]	59	41	8.5	1.7	
COc1ccc(/C=C2\Oc3c(cc(OC)c(OC)c3OC)C2=O)cc1O [DR27, 2-[(Z)-(3′-Hydroxy-4′-methoxyphenyl)methylidene]-5,6,7-trimethoxy-1-benzofuran-3-one]	78	59	> 100	22	pIC50 (K562 cell line): 7.30; melting point: 192 to 193 °C
COc1ccc(C=C2Oc3cc(OC)c(OC)c(OC)c3C2=O)cc1F [DR24]			> 100	> 50	
CO/C(=C\c1ccc(OC)c(O)c1)C(=O)c1cc(OC)c(OC)c(OC)c1 [DR13, (Z)-3-(3″-Hydroxy-4″-methoxyphenyl)-2-methoxy-1-(3′,4′,5′-timethoxyphenyl)-2-propen-1-one]	12	5	2.6	0.51	melting point: 120 to 122 °C
COc1ccc(/C=C(\C)C(O)c2cc(OC)c(OC)c(OC)c2)cc1O (stereo not drawn) [MW70]					% Cells Debris [1]: 15.27%; % Cells G2-M [1]: 23.70%; % Cells S-phase [1]: 32.80%; % Cells G0-G1 [1]: 43.50%; pIC50 (tubulin [3]): < 5.00
COc1ccc(-c2cc(=O)c3c(OC)c(OC)c(OC)cc3o2)cc1O [DR33, 2-(3′-Hydroxy-4′-methoxyphenyl)-5,6,7-trimethoxy-4H-chromen-4-one]			> 100	> 50	
